Patent US10273313B2, “Multimeric mannosides, a process for preparing the same and their uses as a drug” (CENTRE NATIONAL DE LA RECHERCHE SCIENTIFIQUE, priority 2012, dated 2019)
“Also recorded” adds a separate entry of the source.

Experiments:
[1] = test system: AIEC strain LF82 adhesion to T84 intestinal epithelial cells; assay: Adhesion assay on T84 cells with thiazolylaminomannosides (Example 22.3); assay type: cell-based, Escherichia coli; settings: for inhibition at 10 µM: Escherichia coli, Epithelial cell, read-out: Inhibition of adhesion; for Inhibitory effect on adhesion: 100 nM
Protocol: T84 Intestinal Epithelial cells (overexpressing the receptor CEACAM6) were beforehand incubated for 1 h with the synthetic thiazolylaminomannosides 6-20 (examples 3-17) at different concentrations. Each compound was tested four times at concentrations of 0.1, 1, 10 and 100 μM.
The cells were then infected in the presence of inhibitory compounds by the AIEC strain of reference LF82 for 3 hours at a multiplicity of infection of 10 bacteria to a cell. After 3 h of incubation, the monolayer was washed and the number of AIEC bacteria associated with cells was counted. The level of adhesion of AIEC LF82 strain in the presence of inhibitors (residual adhesion) was expressed relatively to the level of adherence in the absence of any treatment (considered 100%) (FIG. 10).

[2] = test system: AIEC LF82 bacteria adhesion to T84 intestinal epithelial cells; assay: Adhesion assay on T84 cells, pre-, co- and post-incubation protocols (Example 21.2); assay type: cell-based, Escherichia coli; settings: pre-incubation assay
Protocol: E. coli strain LF82 was isolated from a chronic ileal lesion of a patient with Crohn's disease (CD). Bacteria were grown routinely in Luria-Bertani (LB) broth overnight at 37° C. Intestinal epithelial cells T84 derived from colonic adenocarcinoma were maintained in an atmosphere containing 5% CO2 at 37° C. in DMEM/F12 (50/50) medium supplemented with 10% (v/v) heat-inactivated fetal calf serum (FCS), 1% L-glutamine, 100 000 U·l^−1 penicillin, 100 mg·l^−1 streptomycin, 25 μg·l^−1 amphotericin B.
T84 were seeded in 48-well plates at a concentration of 1.5×10^5 cells per well and grown for 48 h. AIEC LF82 bacteria were incubated 1 h with each mannoside prior the cell infection (pre-incubation protocol) or they were added simultaneously onto the cells (co-incubation protocol) in complete medium without antibiotics, containing heat inactivated fetal calf serum (FCS). Heptyl-mannose or compound 2 (example 1) were tested at a dose of 100; 10; 1 or 0.1 μM. D-D-mannose was tested at a dose of 10 000; 1 000; 100 or 10 μM and compound 1 (example 2bis) was tested at a concentration of 500; 100; 10 or 1 μM. Cells were infected with AIEC LF82 bacteria at a multiplicity of infection (MOI) of 10 bacteria per cell for 3 h at 37° C. For the post-incubation protocol, mannosides were incubated with cells for 3 h after bacterial infection. A washing step was realized before this post-incubation to eliminate non-adherent bacteria. Monolayers were washed in phosphate-buffered saline (PBS; pH 7.2) and cells were then lysed with 1% Triton X-100 in deionized water. Samples were diluted and plated onto Luria Bertani agar plates to determine the number of colony-forming units (CFU) recovered from the lysed monolayers. Results were expressed as percentages of residual adhesion, considering adhesion level of AIEC LF82 without mannoside treatment as 100%.

[3] = test system: AIEC LF82 bacteria on colonic tissue from transgenic mice expressing human CEACAM6; assay: Ex-vivo adhesion assay on colonic tissue of CEABAC10 mice; set-up: species or system CEABAC10 transgenic mice; settings: 1 h
Protocol: E. coli strain LF82 was isolated from a chronic ileal lesion of a patient with Crohn's disease (CD). Bacteria were grown routinely in Luria-Bertani (LB) broth overnight at 37° C.
Adhesion assay of AIEC LF82 bacteria were performed using colonic tissue from transgenic mice expressing the human CEACAM6 protein (C. H. Chan, C. P. Stanners “Novel mouse model for carcinoembryonic antigen-based therapy”, Mol Ther. 2004; 9, 775-785). Briefly, 10 to 12-week-old FVB/N CEABAC10 transgenic mice were anesthetized, euthanized by cervical dislocation and colons were removed. Colons were washed twice in phosphate buffer saline (PBS) and were segmented in 4 independent loops of ≈0.6 cm. A volume of 100 μL of LF82 bacteria at 2×10^6 bacteria/mL in PBS or of a mix of LF82 bacteria+D-mannose (1 μmol and 10 μmol) or compound 13 (0.1 μmol and 0.01 μmol) were injected into the loops. Loops were incubated 1 h at 37° C. in an atmosphere containing 5% of CO2, and then opened and washed 4 times in PBS. Tissues were homogenized, appropriately diluted and plated onto Luria-Bertani agar plates containing ampicillin (100 μg/mL) and erythromycin (20 μg/mL) to select AIEC LF82 bacteria.
Entire colons from CEABAC10 mice were collected and washed two times with PBS. The colon was divided in 4 isolated loops and 100 μL of a bacterial suspension containing […] bacteria/mL with or without inhibitory compounds were injected into the loops. D-mannose was tested at a dose of 1 and 10 μmol and monovalent 13 was tested at a dose of 0.01 and 0.1 μmol. After a 1 h-period of incubation, samples were extensively washed and homogenized to numerate adherent bacteria. Bacterial adhesion was expressed as percentages of residual adhesion (100% corresponds to the adhesion in absence of any compound).

FimH = FimH (Escherichia coli, UniProt P08191); assay type: binding; settings: competitive ELISA; for Concentration blocking FimH binding towards oligomannose glycans: RNAseB substrate
Chain of FimH (P08191 22-300): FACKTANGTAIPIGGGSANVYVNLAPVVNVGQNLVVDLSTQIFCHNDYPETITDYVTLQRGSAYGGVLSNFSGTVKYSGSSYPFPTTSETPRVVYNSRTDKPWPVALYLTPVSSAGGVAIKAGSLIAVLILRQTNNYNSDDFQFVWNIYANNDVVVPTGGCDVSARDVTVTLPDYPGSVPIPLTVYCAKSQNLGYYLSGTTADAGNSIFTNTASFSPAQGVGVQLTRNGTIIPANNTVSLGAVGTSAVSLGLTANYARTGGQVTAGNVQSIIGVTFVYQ
Protocol: Journal of the American Society for Mass Spectrometry, 2009. […] Tested compounds were added to wells following with FimH treatment.
Plates were coated with 100 μl of 10 mg/ml solution of RNAse-B in 100 mM carbonate/bicarbonate buffer pH 9.6. […] 2 h. Then washed three times with 10 mM PBS containing 0.05% Tween-20. […] Wells were washed three times with 10 mM PBS+0.05% Tween-20. 100 μl of anti-body conjugated to horseradish peroxidase (1:5000) was added in buffer and incubated for 1 h at room temperature. Then washed three times with 10 mM PBS+0.05% Tween-20. Added 100 μl of TMB and incubated in dark for 2-5 min. The reaction was stopped with 100 μl/well 1N sulfuric acid. Plate absorbance was analyzed at 450 nm using microplate reader.

[4] = test system: CD-associated E. coli strain AIEC LF82; assay: Hemagglutination inhibition (HAI) with AIEC LF82, guinea pig erythrocytes; assay type: cell-based, Escherichia coli
Protocol: AIEC adhesion to the gut occurs through the binding of FimH adhesins to the mannosylated glycans of intestinal cells. This scenario was first mimicked here with the highly mannosylated glycocalyx of guinea pig erythrocytes.
A two-fold dilution series of the antagonists was added to wells containing guinea pig erythrocytes and AIEC LF82 bacteria. The formation of the cross-linked network (hemagglutination) due to the interaction of the E. coli FimH adhesins with the glycocalyx of the erythrocytes was prevented at a certain concentration of inhibitors. The lowest concentration at which hemagglutination is still inhibited is defined as the inhibition titer of the antagonist. HM was included in the assay to obtain a relative inhibitory concentration (rIC) for the antagonists by dividing the inhibitory concentration (IC) of the substance of interest by the value for HM. In fact, rICs are more accurate than rough inhibition titers to compare the potency of antagonists evaluated in different assays.

## O=C(c1ccc(Br)cc1)c1cnc(N[C@H]2O[C@H](CO)[C@@H](O)[C@H](O)[C@@H]2O)s1 [Compound 19, 2-(α-D-mannopyranosyl)amino-5-(4-bromobenzoyl)thiazole]
[1]
  inhibition at 10 µM: > 90%

## OC[C@H]1O[C@H](O)[C@@H](O)[C@@H](O)[C@@H]1O [D-mannose, α-D-mannose, reference compound]
[1]; 1000 μM
  Residual adhesion: 51.6%
[2]
  Concentration leading to decreased adhesion levels of at least 50%: 1000 µM
[3]; 1 μmol
  Bacterial adhesion: no decrease
[3]; dose of 10 μmol
  Bacterial adhesion (residual): 41%

## O=C(c1ccccc1)c1cnc(N[C@H]2O[C@H](CO)[C@@H](O)[C@H](O)[C@@H]2O)s1 [Compound 8, 2-(α-D-mannopyranosyl)amino-5-benzoylthiazole]
FimH
  Level of inhibition compared to the HM reference: significantly higher level of inhibition
  Concentration blocking FimH binding towards oligomannose glycans: 5 nM
[1]
  Inhibitory effect on adhesion: significant inhibitory effect

## O=C(c1cnc(N[C@H]2OC(CO)[C@@H](O)C(O)C2O)s1)C12CC3CC(CC(C3)C1)C2 (stereo partly drawn) [Compound 16, 5-((3r,5r,7r)-adamantane-1-carbonyl)-2-(α-D-mannopyranosyl)aminothiazole]
[4]
  Inhibitory potency in HAI (in words): significant improvement
[1]
  Inhibitory effect on adhesion: significant inhibitory effect

## O=C(c1ccncc1)c1cnc(N[C@H]2O[C@H](CO)[C@@H](O)[C@H](O)[C@@H]2O)s1 [Compound 17, 2-(α-D-mannopyranosyl)amino-5-isonicotinoylthiazole]
[1]
  inhibition at 10 µM: > 90%

## Cc1ccc(C(=O)c2cnc(N[C@H]3O[C@H](CO)[C@@H](O)[C@H](O)[C@@H]3O)s2)cc1 [Compound 11, 2-(α-D-mannopyranosyl)amino-5-(4-methylbenzoyl)thiazole]
FimH
  Concentration blocking FimH binding towards oligomannose glycans: 50 nM

## O=C(c1ccsc1)c1cnc(N[C@H]2OC(CO)[C@@H](O)[C@H](O)C2O)s1 (mixture of isomers) [Compound 12, 2-(α-D-mannopyranosyl)amino-5-(thiophene-3-carbonyl)thiazole]
FimH
  Concentration blocking FimH binding towards oligomannose glycans: 50 nM

## O=C(c1cccs1)c1cnc(N[C@H]2OC(CO)[C@@H](O)[C@H](O)C2O)s1 (mixture of isomers) [Compound 14, 2-(α-D-mannopyranosyl)amino-5-(thiophene-2-carbonyl)thiazole]
FimH
  Concentration blocking FimH binding towards oligomannose glycans: 50 nM

## O=C(c1ccc([N+](=O)[O-])cc1)c1cnc(N[C@H]2O[C@H](CO)[C@@H](O)[C@H](O)[C@@H]2O)s1 [Compound 10, 2-(α-D-mannopyranosyl)amino-5-(4-nitrobenzoyl)thiazole]
[4]
  Inhibitory potency in HAI (in words): less potent than the unsubstituted phenyl analogue 8
[1]
  Inhibitory effect on adhesion: significant inhibitory effect
  inhibition at 10 µM: > 90%

## O=C(c1cnc(N[C@H]2O[C@H](CO)[C@@H](O)[C@H](O)[C@@H]2O)s1)C(F)(F)F [Compound 7, 2-(α-D-mannopyranosyl)amino-5-trifluoroacetylthiazole]
[4]
  Inhibitory potency in HAI (in words): less potent than HM; also recorded: significantly less potent than 6
FimH
  Concentration blocking FimH binding towards oligomannose glycans: 50 nM

## CC(C)(C)C(=O)c1cnc(N[C@H]2OC(CO)[C@@H](O)C(O)C2O)s1 (stereo partly drawn) [Compound 9, 2-(α-D-mannopyranosyl)amin-5-tert-butylcarbonylthiazole]
FimH
  Concentration blocking FimH binding towards oligomannose glycans: 50 nM

## N#Cc1ccc(C(=O)c2cnc(N[C@H]3O[C@H](CO)[C@@H](O)[C@H](O)[C@@H]3O)s2)cc1 [Compound 20, 2-(α-D-mannopyranosyl)amino-5-(4-cyanobenzoyl)thiazole]
[4]
  Inhibitory potency in HAI (in words): less potent than the unsubstituted phenyl analogue 8
